Six compounds from ChEMBL document CHEMBL3804791, “Comparison of small molecules and oligonucleotides that target a toxic, non-coding RNA” (Bioorg Med Chem Lett, 2016) can be followed below.

Series [1] deals with C2C12. Description: Effect on BIN1 splicing patterns in mouse C2C12 cells at 0.1 to 10 uM by RT-qPCR method. Format: ADME, cell-based. To be noted: c2c12, 10 µM. Background: Real-time PCR tracks product formation cycle by cycle.
The subject of series [2] is C2C12. As to the kind of experiment: Effect on r(CCUG)300 levels in mouse C2C12 cells at 10 uM by RT-qPCR method. In kind it is functional, cell-based.
Series [3] concerns C2C12. Description: Binding affinity to r(CCUG)300 RNA (unknown origin) in mouse C2C12 cells transfected with BIN1 assessed as rescue of BIN1 splicing defect at 10 uM after 72 hrs by PCR analysis. Format: cell-based.
Series [4] is described as follows: Binding affinity to 5-biotin-r(CCUG)12 RNA (unknown origin) assessed as inhibition of r(CCUG)12/His6-tagged MBNL1 complex formation preincubated for 15 mins followed by addition of His6-tagged MBNL1 by TR-FRET assay. In general terms: Time-resolved FRET reads energy transfer from a long-lived donor to a nearby acceptor.
Series [5] in a line: Binding affinity to 5-biotin-r(CCUG)12 RNA (unknown origin) assessed as disruption of 5-biotin-r(CCUG)12/His6-tagged MBNL1 complex incubated for 15 mins by TR-FRET assay.
Series [6] has as its system C2C12. As to the kind of experiment: Binding affinity to r(CCUG)300 RNA (unknown origin) in mouse C2C12 cells transfected with BIN1 splicing mini gene assessed as rescue of BIN1 splicing defect at 100 nM after 72 hrs by PCR analysis. Format: cell-based.
Series [7] can be described thus: Binding affinity to r(CCUG)300 RNA (unknown origin) in mouse C2C12 cells transfected with BIN1 assessed as rescue of BIN1 splicing defect after 72 hrs by PCR analysis. Format: cell-based.
For series [8], the system named is C2C12. As to the kind of experiment: Effect on BIN1 splicing patterns in mouse C2C12 cells at 1 to 20 uM by RT-qPCR method. In kind it is ADME, cell-based. As to conditions: c2c12, 20 µM.

Usually IC50 stands for the concentration at which inhibition is half-maximal.

Activity calls are given as the source filed them. The rule behind the calls is not given here.

Regarding `CCCN(CC(=O)N(CCC)CC(=O)N(CCC)CC(=O)N(CCC)CC(=O)N(CCCn1cc(CCCC(=O)NC[C@H]2O[C@H](O[C@@H]3[C@@H](O)[C@H](O[C@@H]4O[C@@H](CO)[C@H](O)[C@@H](N)[C@@H]4O)[C@@H](N)C[C@H]3N)[C@H](O)[C@@H](O)[C@@H]2O)nn1)CC(N)=O)C(=O)CNCCCn1cc(CCCC(=O)NC[C@@H]2O[C@@H](O[C@@H]3[C@@H](O)[C@H](O[C@@H]4O[C@@H](CO)[C@H](O)[C@@H](N)[C@@H]4O)[C@@H](N)C[C@H]3N)[C@@H](O)[C@H](O)[C@H]2O)nn1`, the Activity result in the series with C2C12 [1] was “Non-toxic”; in the series with C2C12 [3], 60%. In the series on C2C12 [2], the outcome was inactive.

Regarding `Nc1ccn([C@@H]2C[C@@H](OP(=O)(O)OC[C@H]3O[C@@H](n4cnc5c(N)ncnc54)C[C@@H]3OP(=O)(O)OC[C@H]3O[C@@H](n4cnc5c(=O)[nH]c(N)nc54)C[C@@H]3OP(=O)(O)OC[C@H]3O[C@@H](n4cnc5c(=O)[nH]c(N)nc54)C[C@@H]3OP(=O)(O)OC[C@@H]3O[C@H](n4ccc(N)nc4=O)C[C@H]3OP(=O)(O)OC[C@@H]3O[C@H](n4cnc5c(N)ncnc54)C[C@H]3OP(=O)(O)OC[C@@H]3O[C@H](n4cnc5c(=O)[nH]c(N)nc54)C[C@H]3OP(=O)(O)OC[C@H]3O[C@@H](n4cnc5c(=O)[nH]c(N)nc54)C[C@@H]3O)[C@H](COP(=O)(O)O)O2)c(=O)n1`, the results for the IC50 in series [4] and in series [5] were 700 nM and 830 nM, respectively.

For `Nc1ccn([C@@H]2C[C@@H](OP(=O)(O)OC[C@H]3O[C@@H](n4cnc5c(N)ncnc54)C[C@@H]3OP(=O)(O)OC[C@H]3O[C@@H](n4cnc5c(=O)[nH]c(N)nc54)C[C@@H]3OP(=O)(O)OC[C@@H]3O[C@H](n4cnc5c(=O)[nH]c(N)nc54)C[C@H]3OP(=O)(O)OC[C@@H]3O[C@H](n4ccc(N)nc4=O)C[C@H]3OP(=O)(O)OC[C@H]3O[C@@H](n4cnc5c(N)ncnc54)C[C@@H]3OP(=O)(O)OC[C@H]3O[C@@H](n4cnc5c(=O)[nH]c(N)nc54)C[C@@H]3OP(=O)(O)OC[C@H]3O[C@@H](n4cnc5c(=O)[nH]c(N)nc54)C[C@@H]3O)[C@H](COP(=O)(O)O[C@H]3C[C@H](n4cnc5c(=O)[nH]c(N)nc54)O[C@@H]3COP(=O)(O)O[C@@H]3C[C@@H](n4cnc5c(=O)[nH]c(N)nc54)O[C@H]3COP(=O)(O)O[C@@H]3C[C@@H](n4cnc5c(N)ncnc54)O[C@H]3COP(=O)(O)O[C@H]3C[C@H](n4ccc(N)nc4=O)O[C@@H]3COP(=O)(O)O)O2)c(=O)n1`, the values for the IC50 in series [4] and in series [5] were 300 nM and 470 nM, respectively.

As for `C#CNC(=O)CC(=O)NC[C@H]1O[C@H](O[C@@H]2[C@@H](O)[C@H](O[C@@H]3O[C@@H](CN=[N+]=[N-])[C@H](O)[C@@H](N)[C@@H]3O)[C@@H](N)C[C@H]2N)[C@H](O)[C@@H](O)[C@@H]1O` (stereo in doubt), the figures for the Activity entry in the series on C2C12 [1] and in the series with C2C12 [6] were “Non-toxic” and 50%, respectively. Further, in series [7], the IC50 amounted to 80 nM.

Consider `C#CCCCC(=O)NC[C@H]1O[C@H](O[C@H]2[C@H](O)[C@@H](O[C@H]3O[C@H](CN=[N+]=[N-])[C@@H](O)[C@H](N)[C@H]3O)[C@H](N)C[C@@H]2N)[C@H](O)[C@@H](O)[C@@H]1O`, for which the outcome with C2C12 [2] was inactive.

For the compound `C#CCCCC(=O)NC[C@@H]1O[C@@H](O[C@H]2[C@H](O)[C@@H](O[C@@H]3O[C@@H](CO)[C@H](O)[C@@H](N)[C@@H]3O)[C@H](N)C[C@@H]2N)[C@@H](O)[C@H](O)[C@H]1O`, the Activity result in the series with C2C12 [8] is “Non-toxic”; in the series on C2C12 [3], 15%. The result with C2C12 [2] was inactive.
